# Measurements from patent US7208481B2, “Aminodiphosphonate apolipoprotein E modulators” (ILEX Products, Inc., priority 2002, dated 2007).
# “Also recorded” adds a separate entry of the source.
# Experiments:
# rat plasma apoE = assay: In vivo rat model: plasma apoE by ELISA after 5 days of oral treatment
# Protocol: Rats fed a normal diet are a convenient model recently proposed for the screening of apoE modulating compounds (Leininger-Muller & Siest, 1996, herein incorporated by reference).
# (§1) This model was validated by testing the hypocholesterolemic drug gemfibrozil (200 mg/kg) as reference compound.
# (§2) […] Test compounds were given as a suspension in 20% Tween-80 supplemented with 0.5% carboxymethylcellulose. The control group received 1 ml vehicle alone. After a treatment period of 5 days, rats were weighed, sacrificed by decapitation under pentobarbital anesthesia after an overnight fast. Blood was collected on EDTA and plasma was used for analysis.
# (§3) ApoE was quantified by an ELISA method using a goat anti-apolipoprotein E antibody. Briefly, a dilution to 1/200 of rat plasma was coated on microtiter plates. ApoE was recognized by the polyclonal antibody; the conjugate antibody (anti-goat IgG peroxidase) was then added for substrate biochemical recognition. Apolipoprotein E was expressed as % change from mean control value. Cholesterol was measured with a commercially available enzymatic kit. Results were expressed as % change from control group.
# [1] = tested on: secretion of apoE by THP-1 cells; assay: Secretion of apoE by THP-1 cells, apoE determined by ELISA; assay type: cell-based, human; conditions: reference compound for assay validation
# Protocol: The THP-1 cell line was derived from the peripheral blood of a child with acute monocytic leukaemia and were obtained from the European Collection of Animal Cell Cultures (ECACC, #88081201). […] The cells were grown as non-adherent cells in RPMI 1640 culture medium, 2 mM glutamine, 20 μM 2-mercaptoethanol. Fresh medium was added to maintain cell density between 2 and 9×10^5 cells/ml. Once a week, new cultures were initiated by inoculating 10 ml of medium with 2×10^6 cells in a 75 cm^2 plate. The plates were kept at 37° C. in a 5% CO2 atmosphere. For screening, cells were seeded in 24-well plates at the density of 2×10^5 cells per well. Phorbol-12-myristat-13-acetate (PMA) was added at 0 and 5 nM to initiate TBP-1 differentiation into adherent macrophage-like cells. Vehicles, reference compounds and test compounds were added simultaneously at concentrations varying from 50 μM and incubated for 72 hours. […]
# Ninety-six well-microtiter plates were coated by incubating with a 5% gelatin solution from porcine skin, bloom 60 in 50 mM carbonate-bicarbonate buffer, pH9.6 at the concentration of 200 μl/well, for 2 hours at 37° C. The coating solution was carefully removed and the sample to be analyzed was added (100 μl/well) at the appropriate dilution. […] The absorbance at 492 nm versus 620 nm was read on a microplate photometer and the results were then converted in human apoE ng equivalent. […]
# rat plasma HDLc = assay: In vivo rat model: plasma HDL cholesterol after 5 days of oral treatment; conditions: for Rat Plasma HDLc (% change): dose-response experiment, OFA rats, Day 5
# Protocol: as §1, §2, §3
# [2] = OFA rats, 200 mg/kg/day p.o. for 5 days, change from mean control value
# [3] = OFA rats, 50, 100, 200 mg/kg p.o. for 5 days
# [4] = rats fed a normal diet, 200 mg/kg/day for 5 days
structure (smiles),measurement,setting,value
"CC(C)OP(=O)(OC(C)C)C(Nc1ccccn1)P(=O)(OC(C)C)OC(C)C [Compound 3, Tetraisopropyl N-(2-pyridyl)aminomethylenediphosphonate]",melting point,,98 to 100 °C
same,Rat Plasma apoE (% change),"rat plasma apoE; po, 200 mg/kg/day, 120 h",+16 % change
"CC1=C(/C=C/C(C)=C/C=C/C(C)=C/C(=O)O)C(C)(C)CCC1 [ATRA, all-trans retinoic acid, reference compound]",plasma level of apoE in rats (effect in words),"rat plasma apoE; rats, dose not given",decrease
same,production of apoE by THP-1 cells (effect in words),[1],decreased; also recorded: potent inhibitor
same,HDL cholesterol level in rats (effect in words),"rat plasma HDLc; rats, dose not given",decrease
"CCOP(=O)(OCC)C(Nc1cnc2ccccc2c1)P(=O)(OCC)OCC [Compound 9, Tetraethyl N-(3-quinolinyl)aminomethylenediphosphonate]",melting point,,156 to 158 °C
"CCOP(=O)(OCC)C(Nc1ccccn1)P(=O)(OCC)OCC [Compound 2, Tetraethyl N-(2-pyridyl)aminomethylenediphosphonate]",Rat Plasma apoE (% change),rat plasma apoE; [2],+44 % change
same,"plasma apoE level, dose dependence (in words)",rat plasma apoE; [3],increased in a dose-response way
same,Rat Plasma apoE (% change),"rat plasma apoE; dose-response experiment, OFA rats, 50 mg/kg/day p.o. for 5 days, Day 5",+38 % change
same,Rat Plasma apoE (% change),"rat plasma apoE; dose-response experiment, OFA rats, 100 mg/kg/day p.o. for 5 days, Day 5",+37 % change
same,Rat Plasma apoE (% change),"rat plasma apoE; dose-response experiment, OFA rats, 200 mg/kg/day p.o. for 5 days, Day 5",+62 % change
same,"plasma HDL cholesterol (HDLc) level, dose dependence (in words)",rat plasma HDLc; [3],increased in a dose-response way
same,Rat Plasma HDLc (% change),rat plasma HDLc; 50 mg/kg/day p.o. for 5 days,+27 % change
same,Rat Plasma HDLc (% change),rat plasma HDLc; 100 mg/kg/day p.o. for 5 days,+34 % change
same,Rat Plasma HDLc (% change),rat plasma HDLc; 200 mg/kg/day p.o. for 5 days,+68 % change
"COP(=O)(OC)C(Nc1ccccn1)P(=O)(OC)OC [Compound 1, Tetramethyl N-(2-pyridyl)aminomethylenediphosphonate]",melting point,,162 to 164 °C
same,Rat Plasma apoE (% change),rat plasma apoE; [2],+69 % change
"Cc1ccc(C)c(OCCCC(C)(C)C(=O)O)c1 [gemfibrozil, reference compound]",apoE increase in rats (model validation),rat plasma apoE; [4],+75%
same,HDL cholesterol increase in rats (model validation),rat plasma HDLc; [4],+42%
